Data: ChEMBL document CHEMBL3396992, “Synthesis and biological evaluation of pyrazolylthiazole carboxylic acids as potent anti-inflammatory-antimicrobial agents” (2015)
Converted amounts (≈) assume the structure as drawn. The source made the active and inactive calls. The calls are words filed in the database; no cut-off is given here.

Assays:
Rattus norvegicus [1] = assay: Antiinflammatory activity against carrageenan-induced paw edema male Wistar albino rat assessed as edema volume at 50 mg/kg, po administered 30 mins prior to carrageenan-challenge measured after 1 hr (reference value: 1.11 +/- 0.12 mL); assay type: functional
Rattus norvegicus [2] = assay: Antiinflammatory activity against carrageenan-induced paw edema male Wistar albino rat assessed as edema volume at 50 mg/kg, ip administered 30 mins prior to carrageenan-challenge measured after 2 hrs (reference value: 1.21 +/- 0.16 mL); assay type: functional; details: route intraperitoneal
Rattus norvegicus [3] = assay: Antiinflammatory activity against carrageenan-induced paw edema male Wistar albino rat assessed as edema volume at 50 mg/kg, ip administered 30 mins prior to carrageenan-challenge measured after 3 hrs (reference value: 1.73 +/- 0.09 mL); assay type: functional; details: route intraperitoneal
Rattus norvegicus [4] = assay: Antiinflammatory activity against carrageenan-induced paw edema male Wistar albino rat assessed as edema volume at 50 mg/kg, ip administered 30 mins prior to carrageenan-challenge measured after 4 hrs (reference value: 1.88 +/- 0.20 mL); assay type: functional; details: route intraperitoneal
Rattus norvegicus [5] = assay: Antiinflammatory activity against carrageenan-induced paw edema male Wistar albino rat at 50 mg/kg, ip administered 30 mins prior to carrageenan-challenge measured after 1 hr relative to control; assay type: functional; details: route intraperitoneal
Rattus norvegicus [6] = assay: Antiinflammatory activity against carrageenan-induced paw edema male Wistar albino rat at 50 mg/kg, ip administered 30 mins prior to carrageenan-challenge measured after 2 hrs relative to control; assay type: functional; details: route intraperitoneal
Rattus norvegicus [7] = assay: Antiinflammatory activity against carrageenan-induced paw edema male Wistar albino rat at 50 mg/kg, ip administered 30 mins prior to carrageenan-challenge measured after 3 hrs relative to control; assay type: functional; details: route intraperitoneal
Rattus norvegicus [8] = assay: Antiinflammatory activity against carrageenan-induced paw edema male Wistar albino rat at 50 mg/kg, ip administered 30 mins prior to carrageenan-challenge measured after 4 hrs relative to control; assay type: functional; details: route intraperitoneal
Staphylococcus aureus [9] = assay: Antimicrobial activity against Staphylococcus aureus MTCC 96 assessed as growth inhibition at 4 mg/ml after 24 hrs by agar well diffusion method; assay type: functional; details: for zone of inhibition at 4000 µg/mL: MTCC 96, 24 h, read-out: DIZ
Staphylococcus aureus [10] = assay: Antimicrobial activity against Staphylococcus aureus MTCC 96 assessed as growth inhibition after 24 hrs by agar well diffusion method; assay type: functional
Bacillus subtilis [11] = assay: Antimicrobial activity against Bacillus subtilis MTCC 121 assessed as growth inhibition at 4 mg/ml after 24 hrs by agar well diffusion method; assay type: functional; details: for zone of inhibition at 4000 µg/mL: MTCC 121, 24 h, read-out: DIZ
Bacillus subtilis [12] = assay: Antimicrobial activity against Bacillus subtilis MTCC 121 assessed as growth inhibition after 24 hrs by agar well diffusion method; assay type: functional
Escherichia coli = assay: Antimicrobial activity against Escherichia coli MTCC 1652 assessed as growth inhibition at 4 mg/ml after 24 hrs by agar well diffusion method; assay type: functional, organism-based
Saccharomyces cerevisiae [13] = assay: Antimicrobial activity against Saccharomyces cerevisiae MTCC 170 assessed as growth inhibition at 4 mg/ml after 24 hrs by agar well diffusion method; assay type: functional; details: for zone of inhibition at 4000 µg/mL: MTCC 170, 24 h, read-out: DIZ
Saccharomyces cerevisiae [14] = assay: Antimicrobial activity against Saccharomyces cerevisiae MTCC 170 assessed as growth inhibition after 24 hrs by agar well diffusion method; assay type: functional
Candida albicans [15] = assay: Antimicrobial activity against Candida albicans MTCC 3017 assessed as growth inhibition at 4 mg/ml after 24 hrs by agar well diffusion method; assay type: functional; details: MTCC 3017, 24 h, read-out: DIZ
Candida albicans [16] = assay: Antimicrobial activity against Candida albicans MTCC 3017 assessed as growth inhibition after 24 hrs by agar well diffusion method; assay type: functional; details: MTCC 3017, 24 h
Pseudomonas aeruginosa = details: MTCC 741, 4 mg/ml
Description: Antimicrobial activity against Pseudomonas aeruginosa MTCC 741 assessed as growth inhibition at 4 mg/ml after 24 hrs by agar well diffusion method

SMILES | Activity (Rattus norvegicus [1]) [mL] | Activity (Rattus norvegicus [2]) [mL] | Activity (Rattus norvegicus [3]) [mL] | Activity (Rattus norvegicus [4]) [mL] | Activity (Rattus norvegicus [5]) [%] | Activity (Rattus norvegicus [6]) [%] | Activity (Rattus norvegicus [7]) [%] | Activity (Rattus norvegicus [8]) [%] | diameter of the inhibition zone (DIZ) (Staphylococcus aureus [9]) | MIC (Staphylococcus aureus [10]) | diameter of the inhibition zone (DIZ) (Bacillus subtilis [11]) | MIC (Bacillus subtilis [12]) | diameter of the inhibition zone (DIZ) (Escherichia coli) | zone of inhibition at 4000 µg/mL (Saccharomyces cerevisiae [13]) [mm] | MIC (Saccharomyces cerevisiae [14]; MTCC 170, 24 h) [µg/mL] | zone of inhibition at 4000 µg/mL (Candida albicans [15]) [mm] | MIC (Candida albicans [16]) [µg/mL] | DIZ (Pseudomonas aeruginosa) | diameter of the inhibition zone (DIZ) (Saccharomyces cerevisiae [13]) | MIC (Saccharomyces cerevisiae [14]) | further results
CCOC(=O)c1sc(-c2cn(-c3ccccc3)nc2-c2ccc(Cl)cc2)nc1-c1ccc(Cl)cc1 | 0.18 | 0.27 | 0.12 | 0.18 | 83.78 | 77.68 | 93.06 | 90.42 | inactive | inactive | inactive | inactive | inactive | 15 | 50 (≈ 96.1 µM) | 13 | 50 (≈ 96.1 µM) | inactive | – | – | –
CCOC(=O)c1sc(-c2cn(-c3ccccc3)nc2-c2ccc(Cl)cc2)nc1-c1ccccc1 | 0.12 | 0.22 | 0.32 | 0.28 | 89.89 | 81.81 | 81.5 | 85.1 | inactive | inactive | – | – | inactive | – | – | 16 | 50 (≈ 103 µM) | inactive | inactive | inactive | zone of inhibition at 4000 µg/mL (Bacillus subtilis [11]): 12 mm; MIC (Bacillus subtilis [12]; MTCC 121, 24 h): 50 µg/mL (≈ 103 µM)
CCOC(=O)c1sc(-c2cn(-c3ccccc3)nc2-c2ccccc2)nc1-c1ccc(OC)cc1 | 0.22 | 0.29 | 0.24 | 0.34 | 80.18 | 76.03 | 86.12 | 81.91 | inactive | inactive | – | – | inactive | – | – | 16.3 | 50 (≈ 104 µM) | inactive | inactive | inactive | zone of inhibition at 4000 µg/mL (Bacillus subtilis [11]): 13.6 mm; MIC (Bacillus subtilis [12]; MTCC 121, 24 h): 50 µg/mL (≈ 104 µM)
CCOC(=O)c1sc(-c2cn(-c3ccccc3)nc2-c2ccc(F)cc2)nc1-c1ccc(Cl)cc1 | 0.17 | 0.22 | 0.34 | 0.26 | 84.68 | 81.81 | 80.34 | 86.17 | inactive | inactive | inactive | inactive | inactive | – | – | 17.6 | 50 (≈ 99.2 µM) | inactive | inactive | inactive | –
COc1ccc(-c2nn(-c3ccccc3)cc2-c2nc(-c3ccccc3)c(C(=O)O)s2)cc1 | 0.2 | 0.16 | 0.21 | 0.23 | 81.98 | 86.77 | 87.86 | 87.76 | – | – | – | – | inactive | 16 | 50 (≈ 110 µM) | 16.3 | 50 (≈ 110 µM) | inactive | – | – | zone of inhibition at 4000 µg/mL (Staphylococcus aureus [9]): 21.6 mm; MIC (Staphylococcus aureus [10]; MTCC 96, 24 h): 25 µg/mL (≈ 55.1 µM); zone of inhibition at 4000 µg/mL (Bacillus subtilis [11]): 18.6 mm; MIC (Bacillus subtilis [12]; MTCC 121, 24 h): 25 µg/mL (≈ 55.1 µM)
O=C(O)c1sc(-c2cn(-c3ccccc3)nc2-c2ccccc2)nc1-c1ccc(F)cc1 | 0.19 | 0.16 | 0.18 | 0.17 | 82.88 | 86.77 | 89.59 | 90.95 | – | – | – | – | inactive | 20.6 | 25 (≈ 56.6 µM) | 25.6 | 12.5 (≈ 28.3 µM) | inactive | – | – | zone of inhibition at 4000 µg/mL (Staphylococcus aureus [9]): 24.6 mm; MIC (Staphylococcus aureus [10]; MTCC 96, 24 h): 12.5 µg/mL (≈ 28.3 µM); zone of inhibition at 4000 µg/mL (Bacillus subtilis [11]): 18.3 mm; MIC (Bacillus subtilis [12]; MTCC 121, 24 h): 25 µg/mL (≈ 56.6 µM)
CCOC(=O)c1sc(-c2cn(-c3ccccc3)nc2-c2ccc(F)cc2)nc1-c1ccccc1 | 0.26 | 0.32 | 0.33 | 0.45 | 76.57 | 73.55 | 80.92 | 76.06 | inactive | inactive | inactive | inactive | inactive | – | – | 16.6 | 50 (≈ 106 µM) | inactive | inactive | inactive | –
CCOC(=O)c1sc(-c2cn(-c3ccccc3)nc2-c2ccc(OC)cc2)nc1-c1ccc(OC)cc1 | 0.15 | 0.19 | 0.27 | 0.17 | 86.48 | 84.29 | 84.39 | 90.95 | – | – | inactive | inactive | – | – | – | 16.6 | 50 (≈ 97.7 µM) | – | inactive | inactive | zone of inhibition at 4000 µg/mL (Staphylococcus aureus [9]): 15 mm; MIC (Staphylococcus aureus [10]; MTCC 96, 24 h): 50 µg/mL (≈ 97.7 µM)
C[C@@H]1[C@H](O)[C@@H](C)/C=C/C=C/C=C/C=C/C=C/C=C/C=C/[C@H](O[C@@H]2O[C@H](C)[C@@H](O)[C@H](N)[C@@H]2O)C[C@@H]2O[C@](O)(C[C@@H](O)C[C@@H](O)[C@H](O)CC[C@@H](O)C[C@@H](O)CC(=O)O[C@H]1C)C[C@H](O)[C@H]2C(=O)O [AMPHOTERICIN B] | – | – | – | – | – | – | – | – | – | – | – | – | – | 19.3 | 6.25 (≈ 6.76 µM) | 16.6 | 6.25 (≈ 6.76 µM) | – | – | – | –
